For 20 compounds, IC50 results are on record in patent US11739100B2, “2,3-dihydro-1h-imidazo{1,2-a}pyrimidin-5-one and this 1,2,3,4-tetrahydropyrimido{1,2-a}pyrimidin-6-one derivatives comprising a substituted morpholine, preparation thereof and pharmaceutical use thereof” (SANOFI, priority 2012, dated 2023).

The target in this experiment is T1, recombinant Vps34 (Homo sapiens, UniProt Q8NEB9).
T1 construct: purchased Invitrogen PV5126
Put plainly: Phosphorylation of phosphatidylinositol (PI) by Vps34 in vitro, ADP detected by TR-FRET (HTRF Transcreener ADP). As to conditions: 10 μM ATP, 55 μg/ml PI, approximately 3 nM Vps34, 1 hour at ambient temperature; absolute IC50, mean of two independent experiments; read-out: IC50 activity range. The class given is biochemical.

T1 sequence (Q8NEB9 whole entry): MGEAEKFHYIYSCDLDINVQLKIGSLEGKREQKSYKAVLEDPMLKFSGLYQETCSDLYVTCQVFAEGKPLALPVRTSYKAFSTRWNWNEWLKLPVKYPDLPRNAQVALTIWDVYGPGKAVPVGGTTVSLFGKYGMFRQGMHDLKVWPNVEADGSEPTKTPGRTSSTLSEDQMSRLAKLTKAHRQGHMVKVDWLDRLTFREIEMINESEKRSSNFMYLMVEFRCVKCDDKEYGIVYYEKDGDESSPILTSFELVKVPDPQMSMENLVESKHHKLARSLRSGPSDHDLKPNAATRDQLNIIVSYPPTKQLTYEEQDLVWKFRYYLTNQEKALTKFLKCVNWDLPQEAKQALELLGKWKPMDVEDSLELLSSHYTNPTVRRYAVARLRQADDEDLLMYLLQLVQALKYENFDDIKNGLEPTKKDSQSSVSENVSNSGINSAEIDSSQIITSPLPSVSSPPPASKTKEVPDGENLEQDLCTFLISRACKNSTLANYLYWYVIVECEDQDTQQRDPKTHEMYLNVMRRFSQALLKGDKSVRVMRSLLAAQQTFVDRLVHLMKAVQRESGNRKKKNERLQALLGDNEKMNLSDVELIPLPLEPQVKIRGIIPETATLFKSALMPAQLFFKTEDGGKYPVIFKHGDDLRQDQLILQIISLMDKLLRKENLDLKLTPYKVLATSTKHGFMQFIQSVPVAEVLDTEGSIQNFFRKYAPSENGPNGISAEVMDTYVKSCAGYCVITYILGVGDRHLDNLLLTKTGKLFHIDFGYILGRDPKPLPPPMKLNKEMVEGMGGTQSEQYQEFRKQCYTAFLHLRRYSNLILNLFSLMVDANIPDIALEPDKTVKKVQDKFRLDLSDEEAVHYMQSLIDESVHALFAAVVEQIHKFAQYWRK

One may read the IC50 as the concentration that gives 50% inhibition. As to `C[C@@H]1COCCN1c1cc(=O)n2c(n1)N(Cc1ccc(Cl)nc1)CC[C@@H]2C(F)(F)F` [Example 115, (R)-9-(6-Chloro-pyridin-3-ylmethyl)-2-((R)-3-methyl-morpholin-4-yl)-6-trifluoromethyl-6,7,8,9-tetrahydro-pyrimido[1,2-a]-pyrimidin-4-one], the IC50 was under 10 nM.
On to `CC(C)OC(=O)CN1c2nc(N3CCOC[C@H]3C)cc(=O)n2CC[C@H]1C(F)(F)F` [Example 254, [(S)-8-((R)-3-Methyl-morpholin-4-yl)-6-oxo-2-trifluoromethyl-3,4-dihydro-2H,6H-pyrimido[1,2-a]-pyrimidin-1-yl]acetic acid isopropyl ester], for which the IC50 is under 10 nM.
Next, `Cc1nnc(CN2c3nc(N4CCOC[C@H]4C)cc(=O)n3CC[C@H]2C(F)(F)F)s1` [Example 123, (S)-2-((R)-3-Methyl-morpholin-4-yl)-9-(5-methyl-[1,3,4]thiadiazol-2-yl-methyl)-8-trifluoromethyl-6,7,8,9-tetrahydro-pyrimido[1,2-a]-pyrimidin-4-one]: 10 to 100 nM.
In the case of `CO[C@H](CN1c2nc(N3CCOC[C@H]3C)cc(=O)n2CC[C@H]1C(F)(F)F)c1ccccc1` [Example 100, (S)-9-((S)-2-Methoxy-2-phenylethyl)-2-((R)-3-methylmorpholin-4-yl)-8-trifluoromethyl-6,7,8,9-tetrahydro-pyrimido[1,2-a]-pyrimidin-4-one], the concentration for half-maximal inhibition (IC50) is under 10 nM.
The value for `C[C@@H]1COCCN1c1cc(=O)n2c(n1)N(Cc1noc(C(C)(C)C)n1)[C@H](C(F)(F)F)CC2` [Example 203, (S)-9-(5-tert-Butyl-[1,2,4]oxadiazol-3-yl-methyl)-2-((R)-3-methylmorpholin-4-yl)-8-trifluoromethyl-6,7,8,9-tetrahydro-pyrimido[1,2-a]-pyrimidin-4-one] was under 10 nM.
The value for `C[C@@H]1COCCN1c1nc2n(c(=O)c1F)CC[C@@H](C(F)(F)F)N2Cc1cnco1` [Example 111, (S)-3-Fluoro-2-((R)-3-methylmorpholin-4-yl)-9-oxazol-5-ylmethyl-8-trifluoromethyl-6,7,8,9-tetrahydro-pyrimido[1,2-a]-pyrimidin-4-one] was under 10 nM; that for `C[C@@H]1COCCN1c1cc(=O)n2c(n1)N(CC(=O)N(C)C)[C@H](C(F)(F)F)CC2` [Example 222, N,N-Dimethyl-2-[(S)-8-((R)-3-methyl-morpholin-4-yl)-6-oxo-2-trifluoromethyl-3,4-dihydro-2H,6H-pyrimido[1,2-a]-pyrimidin-1-yl]-acetamide] was 10 to 100 nM; that for `CC(C)=CCN1c2nc(N3CCOC[C@H]3C)cc(=O)n2CC[C@H]1C(F)(F)F` [Example 266, (S)-9-(3-Methyl-but-2-enyl)-2-((R)-3-methyl-morpholin-4-yl)-8-trifluoromethyl-6,7,8,9-tetrahydro-pyrimido[1,2-a]-pyrimidin-4-one] was under 10 nM.
For the compound `C[C@@H]1COC[C@@H](C)N1c1cc(=O)n2c(n1)N(Cc1ncco1)[C@H](C(F)(F)F)CC2` [Example 158, (S)-2-((3R,5R)-3,5-Dimethylmorpholin-4-yl)-9-oxazol-2-yl-methyl-8-trifluoromethyl-6,7,8,9-tetrahydro-pyrimido[1,2-a]-pyrimidin-4-one], the IC50 was under 10 nM.
Next, `CCC(CC)C(=O)CN1c2nc(N3CCOC[C@H]3C)c(F)c(=O)n2CC[C@H]1C(F)(F)F` [Example 282, (S)-9-(3-Ethyl-2-oxo-pentyl)-3-fluoro-2-((R)-3-methylmorpholin-4-yl)-8-trifluoromethyl-6,7,8,9-tetrahydro-pyrimido[1,2-a]-pyrimidin-4-one]: under 10 nM; `C[C@@H]1COCCN1c1cc(=O)n2c(n1)N(CCO)[C@H](C(F)(F)F)CC2` [Example 315, (S)-9-(2-Hydroxy-ethyl)-2-((R)-3-methyl-morpholin-4-yl)-8-trifluoromethyl-6,7,8,9-tetrahydro-pyrimido[1,2-a]-pyrimidin-4-one]: under 10 nM; `C[C@@H]1COCCN1c1nc2n(c(=O)c1F)CC[C@@H](C(F)(F)F)N2Cc1ccc(Cl)nc1` [Example 52, (S)-9-(6-Chloro-pyridin-3-ylmethyl)-3-fluoro-2-((R)-3-methyl-morpholin-4-yl)-8-trifluoromethyl-6,7,8,9-tetrahydro-pyrimido[1,2-a]-pyrimidin-4-one]: under 10 nM.
The value for `C[C@@H]1COCCN1c1nc2n(c(=O)c1F)C[C@@](C)(C(F)(F)F)N2CC(=O)C1CCOCC1` [Example 186, (S)-6-Fluoro-2-methyl-7-((R)-3-methyl-morpholin-4-yl)-1-[2-oxo-2-(tetrahydro-pyran-4-yl)ethyl]-2-trifluoromethyl-2,3-dihydro-1H-imidazo[1,2-a]-pyrimidin-5-one] was under 10 nM; that for `Cc1cc(CN2c3nc(N4CCOC[C@H]4C)c(F)c(=O)n3CC[C@H]2C(F)(F)F)on1` [Example 299, (S)-3-Fluoro-9-(3-methylisoxazol-5-yl-methyl)-2-((R)-3-methylmorpholin-4-yl)-8-trifluoromethyl-6,7,8,9-tetrahydro-pyrimido[1,2-a]-pyrimidin-4-one] was under 10 nM; that for `CC(C)C(=O)CN1CC[C@H](C(F)(F)F)n2c1nc(N1CCOC[C@H]1C)c(F)c2=O` [Example 128, (R)-3-Fluoro-2-((R)-3-methylmorpholin-4-yl)-9-(3-methyl-2-oxo-butyl)-6-trifluoromethyl-6,7,8,9-tetrahydro-pyrimido[1,2-a]-pyrimidin-4-one] was under 10 nM.
Next, `C[C@@H]1COCCN1c1nc2n(c(=O)c1F)CC[C@@H](C(F)(F)F)N2Cc1noc(C2CC2)n1` [Example 247, (S)-9-(5-Cyclopropyl-[1,2,4]oxadiazol-3-yl-methyl)-3-fluoro-2-((R)-3-methyl-morpholin-4-yl)-8-trifluoromethyl-6,7,8,9-tetrahydro-pyrimido[1,2-a]-pyrimidin-4-one]: under 10 nM; `C[C@@H]1COCCN1c1cc(=O)n2c(n1)N(c1ccnc(Cl)c1)CC[C@@H]2C(F)(F)F` [Example 108, (R)-9-(2-Chloro-pyridin-4-yl)-2-((R)-3-methylmorpholin-4-yl)-6-trifluoromethyl-6,7,8,9-tetrahydro-pyrimido[1,2-a]-pyrimidin-4-one]: under 10 nM; `CC1CN(c2nc3n(c(=O)c2F)CC[C@@H](C(F)(F)F)N3CC(=O)C2CC2)CCO1` (single isomer, unassigned) [Example 322]: 10 to 100 nM.
Consider `C[C@@H]1COC[C@@H](C)N1c1cc(=O)n2c(n1)N(c1ccnc(Cl)c1)[C@H](C(F)(F)F)CC2` [Example 159, (S)-9-(2-Chloro-pyridin-4-yl)-2-((3R,5R)-3,5-dimethyl-morpholin-4-yl)-8-trifluoromethyl-6,7,8,9-tetrahydro-pyrimido[1,2-a]-pyrimidin-4-one], for which the IC50 was under 10 nM.
Next, `C[C@@H]1COCCN1c1cc(=O)n2c(n1)N(CC(=O)c1nccs1)[C@H](C(F)(F)F)CC2` [Example 242, (S)-2-((R)-3-Methyl-morpholin-4-yl)-9-(2-oxo-2-thiazol-2-yl-ethyl)-8-trifluoromethyl-6,7,8,9-tetrahydro-pyrimido[1,2-a]-pyrimidin-4-one]: under 10 nM.
